For one data set, the system named is MYCN gene. The experiment in a line: QT-PCR, MYCN mRNA in RH30 cells. Format: cell-based, human. Here is the method:
For the purpose of assessing the ability of the oligonucleotides of the present invention to modulate the expression of the target genes, their ability to reduce the quantity of messenger RNA was analyzed using the Real-Time PCR technique. For this purpose, use was made of 24-well plates, which were seeded with 5.0×10^4 cells with 0.3 ml of OPTI-MEM (GIBCO BRL) medium, 4% FBS and 2 mM L-glutammine (experiments in triplicate) per well. The cells were incubated for 24 hours at 37° C., in an atmosphere containing 5% CO2 to permit adherence to the base of the wells. Each oligonucleotide analyzed, except for the PNA oligonucleotides, was incubated beforehand with 2 μl of Lipofectamine 2000 (Invitrogen), with 0.3 mL of serum-free OPTI-MEM (GIBCO BRL) medium. For each well, the oligonucleotides were analyzed at the following final concentrations: • the antisense oligonucleotides siRNA and siRNA gapmer (i.e. the oligonucleotides containing one or more monomers of chemically modified nucleic acids at the 3' or 5' end, while in the central portion they have monomers of nucleic acids that have not been modified or have been modified at the level of the phosphodiester bond as a phosphorothioate bond) were used at 200 nM; • the antisense oligonucleotides containing phosphorothioate DNA monomers, the RNA antigene oligonucleotides (agRNA) and the oligonucleotides containing DNA monomers and LNA monomers were used at 10 μM; • the morpholino oligonucleotides were used at a concentration of 1 μM, and • the PNA oligonucleotides were administered at a concentration of 1 μM. The cells were treated with the oligonucleotides, adding FBS up to 4% 6 hours after administration of the same. After 24 hours the total RNA was extracted from each well and purified using the RNeasy Mini Kit (QIAGEN). Assays were performed on 8 cell lines obtained from 5 different human tumours which are correlated with MYCN expression, i.e.: • as a neuroblastoma model use was made of the cell lines Kelly, IMR-32 (where the MYCN gene is amplified and superexpressed) and SKNBE2c and LAN1 (where the MYCN gene is amplified and superexpressed and the p53 gene is mutated); • as a rabdomiosarcoma model use was made of the cell line RH30, where the MYCN gene is amplified and superexpressed; • as a Wilms' tumour model use was made of the cell line WiT49, where the MYCN gene is amplified and superexpressed; • as a retinoblastoma model use was made of the cell line Y79, where the MYCN gene is amplified and superexpressed; and • as a model of small cell lung cancer use was made of the cell line H69 where the MYCN gene is amplified and superexpressed. As a control, use was made of the same cell lines as listed above treated with sterile water instead of oligonucleotides. Each RNA sample was quantified (in duplicate) using a NanoDrop ND-1000 spectrophotometer (NanoDrop Technologies). The first strand of cDNA was produced using the cDNA Synthesis Kit for RT-PCR (Roche). For the cDNA synthesis reaction a total of 1 μg of RNA was used. For the real-time PCR, 10 ng of cDNA in a final volume of 20 μl was used with SYBR Green Master Mix 2× (Applied Biosystems) (3 identical experiments were conducted in triplicate). Two housekeeping genes were used as positive controls: GAPDH and beta-actin (ACTB). The conditions of the QT-PCR reaction were: 10 min at 95° C., 20 sec at 95° C., and 30 sec at 60° C., for 50 cycles. The PNAs having SEQ ID NO: 1-12 were also tested on different cell lines which overexpress MYCN (Kelly, SKNBE2c, RH30, […] 1 and H69). The results are shown in Table 6 and confirm the selectivity and specificity of the inhibition effect of the PNAs on the product of protein translation of the MYCN gene. Chimeric oligonucleotides comprising DNA monomers and LNA monomers and having the MYCN gene as their target were tested in vitro on alveolar rabdomyosarcoma cells (RH30). […]

The subject of data set [1] is rabdomyosarcoma cells (RH30). The experiment in a line: Cellular proliferation assay (ATP-Lite), RH30 cells. Format: cell-based, human. Here is the method: For the purpose of assessing the gene modulation ability of the oligonucleotides of the present invention, the effect of their administration on cell viability was determined. For this purpose 5×10^3 cells per well were seeded into 96-well cell culture plates (experiments conducted in triplicate) with 100 μl of OPTI-MEM (GIBCO BRL) medium containing 4% FBS and 2 mM of L-glutammine. The PNA oligonucleotides were administered at different concentrations (1 μM-2.5 μM-5 μM-10 μM) in order to observe a dose-effect relationship. As regards all the other oligonucleotides, the concentrations at which they administered are listed in the paragraph: The viability of the treated cells was determined at 48, 72, 96 and 168 hours after treatment. Cell viability was assessed by means of an ATP-Lite assay (Luminescence ATP Detection Assay System, PerkinElmer) and is reported as the ratio between the average signal of the treated wells compared to the average value of the wells of untreated control cells. The cells were processed following the instructions provided with the kit. The assays were performed on the same cell lines used to determine the levels of the MYCN gene messenger and listed in the paragraph: Treatments with Oligonucleotides-QT-PCR. The PNAs having SEQ ID NO: 1-12 were also tested on different cell lines which overexpress MYCN (Kelly, SKNBE2c, RH30, […] 1 and H69). The results are shown in Table 6 and confirm the selectivity and specificity of the inhibition effect of the PNAs on the product of protein translation of the MYCN gene. Chimeric oligonucleotides comprising DNA monomers and LNA monomers and having the MYCN gene as their target were tested in vitro on alveolar rabdomyosarcoma cells (RH30). […] The antisense oligonucleotides designed and synthesized by the Applicant according to the parameters described in the present invention were analyzed in vitro on rabdomyosarcoma cells (RH30).

Where [2] appears, read: Table 9, siRNA and siRNA gapmer used at 200 nM with Lipofectamine 2000.
[3] abbreviates: Table 9, siRNA and siRNA gapmer used at 200 nM.
Where [4] appears, read: Table 9, phosphorothioate DNA antisense used at 10 μM with Lipofectamine 2000.
The mark [5] stands for this setting: Table 9, phosphorothioate DNA antisense used at 10 μM.

In the oligonucleotide strings, read from the 5' end, every base follows the letter of its sugar. An asterisk marks phosphorothioate; unmarked linkages are phosphodiester. Other units and linkages are bracketed, terminal groups are in braces. A string of capitals states the bases alone. d = 2'-deoxy (DNA)

With “SEQ ID NO: 27: double-stranded siRNA against MYCN, sense GAUGAUGAAGAGGAAGAUG, antisense SEQ ID NO: 58 (antisense CAUCUUCCUCUUCAUCAUC; listed as RNA, chemistry not given here)”, in the data set on MYCN gene (setting [2]), the “mRNA inhibition (%)” value came out at 70%. Further, in data set [1] (setting [3]), the “Cell Prolif. (%)” value was 43%.

On to “SEQ ID NO: 28: double-stranded siRNA against MYCN, sense UGAUGAAGAGGAAGAUGAA, antisense SEQ ID NO: 59 (antisense UUCAUCUUCCUCUUCAUCA; listed as RNA, chemistry not given here)”, for which, in the data set with MYCN gene (setting [2]), the “mRNA inhibition (%)” value stood at 78%. Moreover, in data set [1] (setting [3]), the “Cell Prolif. (%)” value was found to be 35%.

As to “SEQ ID NO: 29: double-stranded siRNA against MYCN, sense GAGGAAGAUGAAGAGGAAG, antisense SEQ ID NO: 60 (antisense CUUCCUCUUCAUCUUCCUC; listed as RNA, chemistry not given here)”, the “mRNA inhibition (%)” value in the data set on MYCN gene (setting [2]) is 85%. Besides, the “Cell Prolif. (%)” value in data set [1] (setting [3]) turned out to be 28%.

Take “SEQ ID NO: 30: double-stranded siRNA against MYCN, sense GGAAGAUGAAGAGGAAGAA, antisense SEQ ID NO: 61 (antisense UUCUUCCUCUUCAUCUUCC; listed as RNA, chemistry not given here)”: in the data set with MYCN gene (setting [2]), the “mRNA inhibition (%)” value is 81%. Further, in data set [1] (setting [3]), the “Cell Prolif. (%)” value is 30%.

For the substance “SEQ ID NO: 31: phosphorothioate DNA antisense oligonucleotide CGTGGAGCAGCTCGGCAT against MYCN (antisense dC*dG*dT*dG*dG*dA*dG*dC*dA*dG*dC*dT*dC*dG*dG*dC*dA*dT)”, the “mRNA inhibition (%)” value in the data set with MYCN gene (setting [4]) worked out at 34%. The “Cell Prolif. (%)” value in data set [1] (setting [5]) came out at 73%.

For the substance “SEQ ID NO: 32: phosphorothioate DNA antisense oligonucleotide CAGGGTGTCCTCTCCGGA against MYCN (antisense dC*dA*dG*dG*dG*dT*dG*dT*dC*dC*dT*dC*dT*dC*dC*dG*dG*dA)”, the “mRNA inhibition (%)” value with MYCN gene (setting [4]) amounted to 45%. Moreover, in data set [1] (setting [5]), the “Cell Prolif. (%)” value was determined as 65%.

On to “SEQ ID NO: 33: double-stranded chimeric RNA / 2′O-Methyl siRNA against MYCN, sense GAGGAAGAUGAAGAGGAAGTT, antisense SEQ ID NO: 62 (antisense CUUCCUCUUCAUCUUCCUCTT; RNA with some 2'-O-methyl monomers, positions not given here)”, for which, in the data set on MYCN gene (setting [2]), the “mRNA inhibition (%)” value came out at 13%. Further, in data set [1] (setting [3]), the “Cell Prolif. (%)” value came to 85%.

Consider “SEQ ID NO: 34: double-stranded chimeric RNA / 2′-Fluoro siRNA against MYCN, sense CAGGAAGAUGAAGAGGAAGUU, antisense SEQ ID NO: 63 (antisense GUUCCUCUUCAUCUUCCUCUU; RNA with some 2'-fluoro monomers, positions not given here)”, for which, in the data set on MYCN gene (setting [2]), the “mRNA inhibition (%)” value was 59%. For the same substance, in data set [1] (setting [3]), the “Cell Prolif. (%)” value is given as 52%.

For the substance “SEQ ID NO: 35: double-stranded chimeric RNA / LNA siRNA against MYCN, sense GAGGAAGAUGAAGAGGAAGTT, antisense SEQ ID NO: 64 (antisense CUUCCUCUUCAUCUUCCUCTT; RNA with some LNA monomers, positions not given here)”, the “mRNA inhibition (%)” value in the data set with MYCN gene (setting [2]) is reported as 34%. In data set [1] (setting [3]), the “Cell Prolif. (%)” value is reported as 68%.

Regarding “SEQ ID NO: 36: double-stranded chimeric RNA / arabinoside RNA siRNA against MYCN, sense CAGGAAGAUGAAGAGGAAGAA, antisense SEQ ID NO: 65 (antisense GUUCCUCUUCAUCUUCCUCAA; arabinoside modifications, further chemistry not given here)”, in the data set on MYCN gene (setting [2]), the “mRNA inhibition (%)” value is 69%. Further, the “Cell Prolif. (%)” value in data set [1] (setting [3]) is listed as 35%.

For the origin of these results see US10752900B2, “Oligonucleotides for modulating gene expression and uses thereof” (BIOGENERA S.P.A., priority 2012, dated 2020).
